Data reported in ChEMBL document CHEMBL1201862, “PubChem BioAssay data set” (2004).
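Where inhibition never reached the appropriate level, the endpoint shown equals the highest concentration tested. Otherwise, values were interpolated linearly from a five-concentration, 48-hour dose response in 96-well plates. Abbreviation: GI50, concentration required for 50% inhibition of growth.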 Activity calls are given as the source filed them. No stated cut-off is given here; in the data, active = GI50 up to about 1.1 µM and inactive = higher.

Tests used:
Test in all cases: NCI anticancer screen, dose series, 48 h
HCC 2998 = test system: HCC 2998
HL-60 = test system: HL-60
OVCAR-3 = test system: OVCAR-3
SF-268 = test system: SF-268
U-251 = test system: U-251
DMS-273 = test system: DMS-273
SF-295 = test system: SF-295
SNB-75 = test system: SNB-75
MOLT-4 = test system: MOLT-4
KM12 = test system: KM12
M19-MEL = test system: M19-MEL
KM-20L2 = test system: KM-20L2
IGROV-1 = test system: IGROV-1
NCI-H522 = test system: NCI-H522
SN12C = test system: SN12C
SW-620 = test system: SW-620
CAKI-1 = test system: CAKI-1
SR = test system: SR
M14 = test system: M14
ACHN = test system: ACHN

| Structure (SMILES) | GI50 (HCC 2998) | GI50 (HL-60) | GI50 (OVCAR-3) | GI50 (SF-268) | GI50 (U-251) | GI50 (DMS-273) | GI50 (SF-295) | GI50 (SNB-75) | GI50 (MOLT-4) | GI50 (KM12) | GI50 (M19-MEL) | GI50 (KM-20L2) | GI50 (IGROV-1) | GI50 (NCI-H522) | GI50 (SN12C) | GI50 (SW-620) | GI50 (CAKI-1) | GI50 (SR) | GI50 (M14) | GI50 (ACHN) |
| --- | --- | --- | --- | --- | --- | --- | --- | --- | --- | --- | --- | --- | --- | --- | --- | --- | --- | --- | --- | --- |
| NC(=O)c1ncn2c1NC(=O)CC2 | > 100 µM (inactive) | > 100 µM (inactive) | > 100 µM (inactive) | > 100 µM (inactive) | > 100 µM (inactive) | > 100 µM (inactive) | > 100 µM (inactive) | > 100 µM (inactive) | > 100 µM (inactive) | > 100 µM (inactive) | > 100 µM (inactive) | > 100 µM (inactive) | > 100 µM (inactive) | > 100 µM (inactive) | > 100 µM (inactive) | > 100 µM (inactive) | > 100 µM (inactive) |  |  |  |
| CC(C)(C)[Si](OC1CCOC1=O)(c1ccccc1)c1ccccc1 (stereo not drawn) | 18.9 µM (inactive) | 14.4 µM (inactive) | 13.1 µM (inactive) | 23 µM (inactive) | 14.7 µM (inactive) |  | 16 µM (inactive) | 23.6 µM (inactive) | 17.5 µM (inactive) | > 10 µM (inactive) | 19.2 µM (inactive) | 14.5 µM (inactive) | 15.7 µM (inactive) | 13.8 µM (inactive) | 17.1 µM (inactive) | 26.5 µM (inactive) |  | > 10 µM (inactive) | 18 µM (inactive) | 19.1 µM (inactive) |
| CC[C@@H]1C[C@@H]2CN3CCc4c([nH]c5ccc(OC)cc45)C(COC(=O)c4ccc(OC)c(OC)c4)(C2)C13 | 20.3 µM (inactive) | 14.5 µM (inactive) | 16.1 µM (inactive) | 33 µM (inactive) | 16.5 µM (inactive) |  | 19.5 µM (inactive) | 24.5 µM (inactive) | 11.4 µM (inactive) | 23.8 µM (inactive) | 36 µM (inactive) | 15.6 µM (inactive) | 20.2 µM (inactive) |  | 17.4 µM (inactive) | 14.6 µM (inactive) | 19.5 µM (inactive) | 13.6 µM (inactive) | 14.9 µM (inactive) | 24.4 µM (inactive) |
| COC(=O)C(=O)C(C(C)=O)C(=O)C(=O)Nc1ccc(C)cc1C (stereo not drawn) | > 100 µM (inactive) | > 100 µM (inactive) |  | > 100 µM (inactive) | > 100 µM (inactive) | > 100 µM (inactive) | > 100 µM (inactive) | > 100 µM (inactive) | > 100 µM (inactive) | > 100 µM (inactive) | > 100 µM (inactive) | > 100 µM (inactive) | > 100 µM (inactive) | > 100 µM (inactive) | > 100 µM (inactive) | > 100 µM (inactive) | > 100 µM (inactive) | > 100 µM (inactive) | > 100 µM (inactive) | > 100 µM (inactive) |
| O=NN(CCCl)C(=O)N[C@H]1CC[C@H](C(=O)O)CC1 | > 100 µM (inactive) |  | > 100 µM (inactive) | 29.7 µM (inactive) | 35.8 µM (inactive) | > 100 µM (inactive) | 34.8 µM (inactive) | > 80.2 µM (inactive) | 5.32 µM (inactive) | > 100 µM (inactive) | > 100 µM (inactive) | > 100 µM (inactive) | > 100 µM (inactive) | 38.6 µM (inactive) | > 100 µM (inactive) | > 61.1 µM (inactive) | > 100 µM (inactive) |  |  |  |
| COc1ccc(C2=NN(c3nsc4ccccc34)C(=O)CC2)cc1 | > 100 µM (inactive) | 39.4 µM (inactive) | 32.3 µM (inactive) | > 100 µM (inactive) | 91.4 µM (inactive) | > 100 µM (inactive) |  | 84.3 µM (inactive) | 44 µM (inactive) | > 100 µM (inactive) | > 100 µM (inactive) | > 100 µM (inactive) | 70.1 µM (inactive) |  | > 100 µM (inactive) | > 100 µM (inactive) |  | 49 µM (inactive) | > 100 µM (inactive) | > 100 µM (inactive) |
| NC(=S)N/N=C1\CC(c2ccccc2)Nc2ccccc21 (stereo not drawn) |  | 11 µM (inactive) | 40.3 µM (inactive) | 40.1 µM (inactive) | 39.6 µM (inactive) | 32.3 µM (inactive) | 60.3 µM (inactive) | 16.6 µM (inactive) | 22.6 µM (inactive) |  | 39.4 µM (inactive) | 18.5 µM (inactive) | 42.7 µM (inactive) | 25.2 µM (inactive) | 48.1 µM (inactive) | 30.7 µM (inactive) | 66.7 µM (inactive) |  | 42.1 µM (inactive) | 46.3 µM (inactive) |
| CCOC(=O)N1C2C=C(C)C(ON2C(=O)c2ccccc2)C2C(C)C(=O)N21 (stereo not drawn) | > 100 µM (inactive) | > 100 µM (inactive) | > 100 µM (inactive) | > 100 µM (inactive) | > 100 µM (inactive) | > 100 µM (inactive) | > 100 µM (inactive) | 23.6 µM (inactive) | > 100 µM (inactive) | > 100 µM (inactive) | > 100 µM (inactive) | > 100 µM (inactive) | > 100 µM (inactive) |  | > 100 µM (inactive) | > 100 µM (inactive) |  | > 100 µM (inactive) | > 100 µM (inactive) | > 100 µM (inactive) |
| COC(=O)c1c[nH]cc1CCc1c[nH]cc1C(=O)OC | > 100 µM (inactive) | > 100 µM (inactive) | > 100 µM (inactive) | > 100 µM (inactive) | > 100 µM (inactive) | > 100 µM (inactive) | > 100 µM (inactive) |  | > 100 µM (inactive) | > 100 µM (inactive) | > 100 µM (inactive) | > 100 µM (inactive) | > 100 µM (inactive) | 58.1 µM (inactive) | > 100 µM (inactive) | > 100 µM (inactive) | > 100 µM (inactive) | > 100 µM (inactive) |  | > 100 µM (inactive) |
| Cc1cc(Cc2cc(Cc3cc(C)cc(C(C)(C)C)c3O)c(C)cc2C)c(O)c(C(C)(C)C)c1 | 13.5 µM (inactive) | 20.9 µM (inactive) | 16.4 µM (inactive) | 15.9 µM (inactive) | > 100 µM (inactive) |  | 18.9 µM (inactive) | 11.2 µM (inactive) | 16.9 µM (inactive) | 16.6 µM (inactive) |  |  | 17.3 µM (inactive) | 14.3 µM (inactive) | 16.6 µM (inactive) | 17.9 µM (inactive) | 19.9 µM (inactive) | 29.2 µM (inactive) | 17.4 µM (inactive) | 16.1 µM (inactive) |
| O=CN1CCC23CC(O)CCC2C1Cc1cc(Oc2nnnn2-c2ccccc2)cc(O)c13 (stereo not drawn) | > 100 µM (inactive) | 52.1 µM (inactive) | > 100 µM (inactive) | > 100 µM (inactive) | > 100 µM (inactive) |  | > 100 µM (inactive) | > 100 µM (inactive) | 48.9 µM (inactive) | 57.9 µM (inactive) |  |  | 37.8 µM (inactive) | 91.4 µM (inactive) | > 100 µM (inactive) | > 100 µM (inactive) | > 100 µM (inactive) | 55 µM (inactive) | > 100 µM (inactive) | > 100 µM (inactive) |
| NC(=O)c1csc(C2O[C@@H](COP(=O)(O)OP(=O)(O)OC[C@H]3OC(n4cnc5c(N)ncnc54)[C@H](O)[C@@H]3O)[C@H](O)[C@@H]2O)n1 (stereo partly drawn) | > 100 µM (inactive) | 67.3 µM (inactive) | > 100 µM (inactive) | 64 µM (inactive) | 45.8 µM (inactive) | 99.5 µM (inactive) | 30 µM (inactive) | 45 µM (inactive) | 59.2 µM (inactive) | 88.1 µM (inactive) |  | > 100 µM (inactive) | > 100 µM (inactive) | 52.8 µM (inactive) | > 100 µM (inactive) | > 100 µM (inactive) | 97.9 µM (inactive) |  | 37.8 µM (inactive) | > 100 µM (inactive) |
| C=C1CC(OC)(C(O)C(=O)N[C@H]2OCO[C@H]3C2O[C@H](C[C@@H](COC)OC)C(C)(C)C3OC)O[C@H](C)[C@@H]1C (stereo partly drawn) | < 0.00482 µM (active) | < 0.00482 µM (active) | < 0.00482 µM (active) | < 0.00482 µM (active) | < 0.00482 µM (active) | < 0.00482 µM (active) | < 0.00482 µM (active) | < 0.00482 µM (active) | < 0.00482 µM (active) | < 0.00482 µM (active) | < 0.00482 µM (active) | < 0.00482 µM (active) | < 0.00482 µM (active) | < 0.00482 µM (active) | < 0.00482 µM (active) | < 0.00482 µM (active) | < 0.00482 µM (active) |  |  |  |
| COc1ccc(C2CC(c3sc(Nc4ccc(C)cc4)nc3C)=NN2)cc1 (stereo not drawn) | 15.8 µM (inactive) | 7.64 µM (inactive) | 15.8 µM (inactive) | 15.8 µM (inactive) | 14.8 µM (inactive) | 18.8 µM (inactive) | 15 µM (inactive) | 14.8 µM (inactive) | 8.34 µM (inactive) | 15.2 µM (inactive) | > 44.1 µM (inactive) | 16.1 µM (inactive) | > 40.8 µM (inactive) | 15.3 µM (inactive) | 14.1 µM (inactive) | 18.8 µM (inactive) | 18 µM (inactive) |  |  |  |
| COc1cccc(CC(C)N)c1 (stereo not drawn) | > 100 µM (inactive) | > 100 µM (inactive) | > 100 µM (inactive) | > 100 µM (inactive) | > 100 µM (inactive) | > 100 µM (inactive) | > 100 µM (inactive) | > 100 µM (inactive) | > 100 µM (inactive) | > 100 µM (inactive) |  | > 100 µM (inactive) | > 100 µM (inactive) | > 100 µM (inactive) | > 100 µM (inactive) | > 100 µM (inactive) | > 100 µM (inactive) | > 100 µM (inactive) | > 100 µM (inactive) | > 100 µM (inactive) |
